Values after ≈ are worked out from the molar mass of the structure shown. Active and inactive are the calls of the source. The calls are words filed in the database; no cut-off is given here.
Experiments:
[1] = target: T1, Growth hormone secretagogue receptor type 1 (Homo sapiens, UniProt Q92847); test: Inverse agonist activity at SNAP-tagged human GHSR expressed in HEK293 cells assessed as inhibition of ghrelin-induced IP1 response measured after 30 mins by HTRF assay; type: functional, cell-based
T1 sequence (Q92847 whole entry): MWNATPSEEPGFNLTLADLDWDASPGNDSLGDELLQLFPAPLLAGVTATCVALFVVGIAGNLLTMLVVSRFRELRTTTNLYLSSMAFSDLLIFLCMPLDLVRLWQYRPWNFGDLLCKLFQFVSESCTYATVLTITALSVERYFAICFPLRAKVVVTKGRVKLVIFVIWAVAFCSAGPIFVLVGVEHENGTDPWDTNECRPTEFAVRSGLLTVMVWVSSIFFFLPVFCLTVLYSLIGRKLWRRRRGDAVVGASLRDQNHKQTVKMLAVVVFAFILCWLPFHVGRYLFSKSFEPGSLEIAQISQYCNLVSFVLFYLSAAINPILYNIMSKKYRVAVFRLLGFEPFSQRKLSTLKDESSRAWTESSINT

[2] = target: T1, Growth hormone secretagogue receptor type 1; conditions: HEK293, filed as inverse agonist, dose 1.0 10^-5M, time 30.0 min
[3] = target: T1, Growth hormone secretagogue receptor type 1; test: Displacement of red-ghrelin from SNAP-tagged human GHSR expressed in HEK293 cells incubated for 3 hrs at 4 degC or for 1 hr at room temperature by HTRF assay; type: cell-based
[4] = Toxicity in wild type C57BL6/J mouse assessed as hunched posture at 1 nmol, icv injection for 2 mins via cannula; conditions: in vivo, icv_or_intrathecal
[5] = Anti-orexigenic activity in wild type C57BL6/J mouse assessed as reduction in ghrelin-induced food intake at 1 nmol, icv administered via cannula for 2 mins pretreated for 15 mins followed by ghrelin stimulation and measured after 2 hrs relative to control; type: functional; set-up: scale not given: the % may be the effect or the level left; conditions: time 135 min, 2.25 h
[6] = Toxicity in wild type C57BL6/J mouse assessed as subdued behavior at 1 nmol, icv injection for 2 mins via cannula; conditions: in vivo, icv_or_intrathecal
[7] = Toxicity in wild type C57BL6/J mouse assessed as appearance of spiky coat at 1 nmol, icv injection for 2 mins via cannula; conditions: in vivo, icv_or_intrathecal
[8] = Toxicity in wild type C57BL6/J mouse assessed as sickness-like behavior at 1 nmol, icv injection for 2 mins via cannula; conditions: in vivo, icv_or_intrathecal
[9] = Toxicity in wild type C57BL6/J mouse assessed as effect on labored movement at 1 nmol, icv injection for 2 mins via cannula; conditions: in vivo, icv_or_intrathecal
[10] = Toxicity in wild type C57BL6/J mouse assessed as effect on body weight at 1 nmol, icv injection for 2 mins via cannula; conditions: in vivo, icv_or_intrathecal
[11] = Toxicity in wild type C57BL6/J mouse assessed as reduced activity at 1 nmol, icv injection for 2 mins via cannula; conditions: in vivo, icv_or_intrathecal
[12] = tested on: Mus musculus; test: Suppression of compensatory hyperphagia in wild type C57BL6/J mouse assessed as reduction in cumulative food intake at 1 nmol, icv administered at 8 hrs interval for 48 hrs followed by refeeding at 2 hrs post last dose and measured for 7 days post refeeding; type: functional; set-up: scale not given: the % may be the effect or the level left; conditions: time 9 day
[13] = Toxicity in wild type C57BL6/J mouse assessed as effect on early dark cycle food intake at 1 nmol, icv injection for 2 mins via cannula measured after 5 hrs (reference value: 2591 +/- 197 mg); conditions: in vivo, icv_or_intrathecal
[14] = Toxicity in wild type C57BL6/J mouse assessed as altered breathing rate at 1 nmol, icv injection for 2 mins via cannula; conditions: in vivo, icv_or_intrathecal
[15] = target: T1, Growth hormone secretagogue receptor type 1; test: Antagonist activity at SNAP-tagged human GHSR expressed in HEK293 cells assessed as inhibition of ghrelin-induced IP1 accumulation at 10^-5M measured after 30 mins by IP1-d2 derivative based HTRF assay relative to control; type: functional, cell-based; conditions: filed as antagonist, dose 1.0 10^-5M
[16] = target: T1, Growth hormone secretagogue receptor type 1; test: Antagonist activity at SNAP-tagged human GHSR expressed in HEK293 cells assessed as inhibition of ghrelin-induced IP1 accumulation at 10^-5M measured after 30 mins by IP1-d2 derivative based HTRF assay relative to ghrelin; type: functional, cell-based; conditions: filed as antagonist, dose 1.0 10^-5M
[17] = target: T1, Growth hormone secretagogue receptor type 1; test: Agonist activity at SNAP-tagged human GHSR expressed in HEK293 cells assessed as stimulation of ghrelin-induced increase in IP1 accumulation at 10^-5 M measured after 30 mins by IP1-d2 derivative based HTRF assay relative to ghrelin; type: functional, cell-based; conditions: filed as agonist, dose 1.0 10^-5M
[18] = target: T1, Growth hormone secretagogue receptor type 1; test: Agonist activity at SNAP-tagged human GHSR expressed in HEK293 cells assessed as stimulation of ghrelin-induced increase in IP1 accumulation at 10^-5 M measured after 30 mins by IP1-d2 derivative based HTRF assay relative to control; type: functional, cell-based; conditions: filed as agonist, dose 1.0 10^-5M
[19] = Solubility of the compound in water; type: physicochemical
[20] = target: Growth hormone secretagogue receptor type 1 (Rattus norvegicus) (UniProt O08725); test: Inverse agonist activity at GHSR in Wistar rat pancreatic islets assessed as suppression of ghrelin-induced inhibition of glucose-stimulated insulin secretion at 1 uM after 1 hr in presence of glucose; type: tissue-based; conditions: Pancreas, filed as inverse agonist
Chain of Growth hormone secretagogue receptor type 1 (Rattus norvegicus) (O08725 whole entry): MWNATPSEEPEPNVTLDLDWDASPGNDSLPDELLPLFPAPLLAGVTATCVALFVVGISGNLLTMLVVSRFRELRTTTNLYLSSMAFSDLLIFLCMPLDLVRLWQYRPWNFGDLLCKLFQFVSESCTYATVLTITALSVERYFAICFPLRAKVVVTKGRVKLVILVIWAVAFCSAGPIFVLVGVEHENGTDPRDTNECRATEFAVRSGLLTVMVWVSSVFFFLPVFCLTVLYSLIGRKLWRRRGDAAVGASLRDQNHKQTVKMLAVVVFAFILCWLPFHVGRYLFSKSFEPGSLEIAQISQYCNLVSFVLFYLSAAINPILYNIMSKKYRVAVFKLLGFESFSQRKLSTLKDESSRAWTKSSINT

COc1ccc(Cn2c(CCc3ccccc3)nnc2[C@@H](Cc2c[nH]c3ccccc23)NC(=O)CNC(=O)/C(C#N)=C/c2c[nH]c3ccccc23)cc1 showed an EC50 [1] of 28 nM, an Emax [2] of 79% and a Ki [3] of 6.3 nM.

Work on COc1ccc(/C=C(\C#N)C(=O)NCC(=O)N[C@H](Cc2c[nH]c3ccccc23)c2nnc(CCc3ccccc3)n2Cc2ccc(OC)cc2)cc1 yielded an EC50 [1] of 50 nM, an Emax [2] of 86% and a Ki [3] of 0.5 nM.

In the case of COc1ccc(/C=C(\C#N)C(=O)NCCC(=O)N[C@H](Cc2c[nH]c3ccccc23)c2nnc(CCc3ccccc3)n2Cc2ccc(OC)cc2)cc1, the EC50 [1] is reported as 3.6 nM, the Emax [2] is reported as 75% and the Ki [3] is reported as 14 nM.

COc1ccc(Cn2c(CCN3CCOCC3)nnc2[C@@H](Cc2c[nH]c3ccccc23)NC(=O)CNC(=O)/C(C#N)=C/c2ccc(N(C)C)cc2)cc1 showed an EC50 [1] of 6 nM, an Emax [2] of 64% and a Ki [3] of 6.3 nM.

For CC(C)C[C@H](NC(=O)[C@H](CC(C)C)NC(=O)[C@@H](Cc1c[nH]c2ccccc12)NC(=O)[C@H](Cc1ccccc1)NC(=O)[C@@H](Cc1cccc2ccccc12)NC(=O)[C@@H](N)CCCCN)C(N)=O, the Activity [4] was “Non-Toxic”, the Activity [5] was 67.6% and the Activity [6] was “Non-Toxic”. The Activity [7] was “Non-Toxic”, the Activity [8] was “Non-Toxic” and the Activity [9] was “Non-Toxic”. For the same compound, the Activity [10] was “Non-Toxic”, the Activity [11] was “Non-Toxic” and the Activity [12] was 20.1%. For the same compound, the Activity [13] was 2623 mg and the Activity [14] was “Non-Toxic”.

For COc1ccc(CC(N)C(=O)NCC(=O)N[C@H](Cc2c[nH]c3ccccc23)c2nnc(CCc3ccccc3)n2Cc2ccc(OC)cc2)cc1 (single isomer, unassigned), the EC50 [1] was 62 nM, the Emax [2] was 43% and the Ki [3] was 17 nM.

Work on COc1ccc(Cn2c(CCc3ccccc3)nnc2[C@@H](Cc2c[nH]c3ccccc23)NC(=O)CNC(=O)C(C#N)Cc2ccccc2)cc1 (stereo not given in full) yielded a %max [15] of 72% and a %max [16] of 70%.

Work on COc1ccc(Cn2c(CCc3ccccc3)nnc2[C@@H](Cc2c[nH]c3ccccc23)NC(=O)CN(C)C)cc1 yielded a %max [17] of 76% and a %max [18] of 96%.

With COc1ccc(Cn2c(CCc3c[nH]c4ccccc34)nnc2[C@@H](Cc2c[nH]c3ccccc23)NC(=O)CNC(=O)/C(C#N)=C/c2ccc(O)cc2)cc1 the Ki [3] was 30 nM.

In the case of CNCC(=O)N[C@H](Cc1c[nH]c2ccccc12)c1nnc(CCc2ccccc2)n1Cc1ccc(OC)cc1, the %max [17] is reported as 76% and the %max [18] is reported as 100%.

With COc1ccc(Cn2c(CCc3ccccc3)nnc2[C@@H](Cc2c[nH]c3ccccc23)NC(=O)CNC(=O)/C=C/c2ccc(F)cc2)cc1 the %max [15] was 74% and the %max [16] was 71%.

Compound COc1ccc(Cn2c(CCc3ccccc3)nnc2[C@@H](Cc2c[nH]c3ccccc23)NC(=O)CNC(=O)/C(C#N)=C/c2ccc(C)cc2)cc1 has an EC50 [1] of 21.5 nM, an Emax [2] of 82% and a Ki [3] of 1 nM.

Compound COc1ccc(/C=C(\C#N)C(=O)NCC(=O)N[C@H](Cc2c[nH]c3ccccc23)c2nnc(CCc3c[nH]c4ccccc34)n2Cc2ccc(OC)cc2)cc1 has a solubility ([19]; water, read-out: solubility) of 3.8 µg/mL (≈ 5.19 µM).

In the case of COc1ccc(Cn2c(CCc3ccccc3)nnc2[C@@H](Cc2c[nH]c3ccccc23)NC(=O)CNC(=O)C#Cc2ccccc2)cc1, the %max [17] is reported as 69% and the %max [18] is reported as 95%.

Work on COc1ccc(Cn2c(CCc3ccccc3)nnc2[C@@H](Cc2c[nH]c3ccccc23)NC(=O)CN)cc1 yielded a %max [15] of 65% and a %max [16] of 65%.

COc1ccc(/C=C(\C#N)C(=O)N[C@@H](C)C(=O)N[C@H](Cc2c[nH]c3ccccc23)c2nnc(CCc3ccccc3)n2Cc2ccc(OC)cc2)cc1 showed an EC50 [1] of 1.4 nM, an Emax [2] of 78% and a Ki [3] of 3 nM.

For COc1ccc(Cn2c(CCc3ccccc3)nnc2[C@@H](Cc2c[nH]c3ccccc23)NC(=O)CNC(=O)/C(C#N)=C/c2ccc(F)cc2)cc1, the EC50 [1] was 14.2 nM, the Emax [2] was 76% and the Ki [3] was 0.6 nM.

COc1ccc(Cn2c(CCN3CCOCC3)nnc2[C@@H](Cc2c[nH]c3ccccc23)NC(=O)CNC(=O)/C(C#N)=C/c2ccccc2)cc1 gave an Emax [2] of 49%.

With COc1ccc(Cn2c(CCc3ccccc3)nnc2[C@@H](Cc2c[nH]c3ccccc23)NC(=O)CNC(=O)/C(C#N)=C/c2ccc(N(C)C)cc2)cc1 the EC50 [1] was 89 nM, the Emax [2] was 78% and the Ki [3] was 2.4 nM.

CCN(CC)CCc1nnc([C@@H](Cc2c[nH]c3ccccc23)NC(=O)CNC(=O)/C(C#N)=C/c2ccc(OC)cc2)n1Cc1ccc(OC)cc1 showed an EC50 [1] of 35 nM, an Emax [2] of 69% and a Ki [3] of 10 nM.

For COc1ccc(Cn2c(CCc3ccccc3)nnc2[C@@H](Cc2c[nH]c3ccccc23)NC(=O)CNC(=O)/C(C#N)=C/c2ccc(O)cc2)cc1, the Activity [4] was “Non-Toxic”, the Activity [5] was 30.3% and the Activity [6] was “Non-Toxic”. For the same compound, the Activity [7] was “Non-Toxic”, the Activity [8] was “Non-Toxic” and the Activity [9] was “Non-Toxic”. The EC50 [1] was 27 nM, the Emax [2] was 83% and the Activity [10] was “Non-Toxic”. For the same compound, the Ki [3] was 3 nM, the Activity [11] was “Non-Toxic” and the Activity [20] was “Active”. For the same compound, the solubility ([19]; buffer) was “Soluble”, the Activity [12] was 12.4% and the Activity [13] was 2179 mg. For the same compound, the Activity [14] was “Non-Toxic”.

With COc1ccc(/C=C(\C#N)C(=O)OCC(=O)N[C@H](Cc2c[nH]c3ccccc23)c2nnc(CCc3ccccc3)n2Cc2ccc(OC)cc2)cc1 the Ki [3] was 13 nM.

Compound COc1ccc(Cn2c(CCc3ccccc3)nnc2[C@@H](Cc2c[nH]c3ccccc23)NC(=O)CNC(=O)C(C)(C)C#N)cc1 has a %max [15] of 70% and a %max [16] of 70%.

— ChEMBL document CHEMBL4665788, “Development of Nonpeptidic Inverse Agonists of the Ghrelin Receptor (GHSR) Based on the 1,2,4-Triazole Scaffold” (J Med Chem, 2020)
